Data on five compounds can be found in patent US5039665A, “Use of fructose-1,6-diphosphate for treating myocardial infarction” (priority 1990, dated 1991).

SMILES strings stand for the structures.

One assay deals with rabbit ileum. Nature of the assay: force of contraction of isolated rabbit ileum. Particulars: added to perfusate. An excerpt: (§1) To allow for a broader and more complete interpretation of the results, a small paragraph will be devoted to the ability of FDP to cross the cellular membranes.
For another assay, the system named is erythrocytes. Nature of the assay: incubation of erythrocytes: ATP and 2-3 DPG content. The class given is cell-based. Particulars: equimolar, same conditions.
Text: as §1

The subject of the next assay is heart preparation. Particulars: infusion of Locke's solution plus sugar; cited from earlier work.

Take `O=C(CO)[C@@H](O)[C@H](O)[C@H](O)CO` [fructose]: the force of contraction result in the assay with rabbit ileum is listed as “fail to produce the same effect”. The “ATP content in the erythrocytes” value with erythrocytes is “failed to increase the ATP content”. For the same compound, the “amplitude and frequency of heart beats, lactic acid, pH and potassium during recovery” value in the assay on heart preparation is listed as “no significant difference”.
Regarding `O=P(O)(O)O` [inorganic phosphate], the force of contraction result in the assay on rabbit ileum is “fail to produce the same effect”. Besides, in the assay with erythrocytes, the “ATP content in the erythrocytes” value is “failed to increase the ATP content”.
For `O=C(CO)[C@@H](O)[C@H](O)[C@H](O)COP(=O)(O)O` [fructose-6-phosphate], in that order: “fail to produce the same effect” and “failed to increase the ATP content”.
Consider `OC[C@H]1O[C@@](CO)(O[C@H]2O[C@H](CO)[C@@H](O)[C@H](O)[C@H]2O)[C@@H](O)[C@@H]1O` [sucrose], for which, in the assay on heart preparation, the “amplitude and frequency of heart beats, lactic acid, pH and potassium during recovery” value is listed as “no significant difference”.
In the case of `O=C[C@H](O)[C@@H](O)[C@H](O)[C@H](O)COP(=O)(O)O` [glucose-6-phosphate], the force of contraction entry in the assay with rabbit ileum is recorded as “fail to produce the same effect”. In addition, the “ATP content in the erythrocytes” value in the assay on erythrocytes is “failed to increase the ATP content”.
